{"source": "patent US8399672B2", "about": "“Compound having affinity for amyloid” (Nihon Medi-Physics Co., Ltd., priority 2007, dated 2013)", "key": {"[1]": {"target": "T1, amyloid in brain (aggregated Aβ1-42 injected into amygdaloid nucleus) (Homo sapiens, UniProt P05067)", "T1 construct": "Aβ1-42 (manufactured by Wako); purchased Wako", "T1 sequence (P05067 672-713 limits assumed)": "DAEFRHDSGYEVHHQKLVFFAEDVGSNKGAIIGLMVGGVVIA", "experiment": "Confirmation of binding to amyloid in brain (in vitro autoradiogram of brain slice)", "parameters": "species or system male Wistar rat", "conditions": "rat brain slice immersed in sample solution (0.1 MBq/mL)", "procedure": "(1) Aβ1-42 (manufactured by Wako) was dissolved in phosphate buffer (pH 7.4) and shaken at 37° C. for 72 hours, to obtain a 1 mg/mL suspension of aggregated Aβ (hereinafter referred to as amyloid suspension in the present Example).\n(2) Under thiopental anesthesia, the […] of the amyloid suspension was injected into an amygdaloid nucleus on one side of a male Wistar rat (7-week old). As a control, 2.5 μL of a phosphate buffered physiological saline solution (pH 7.4) was injected into an amygdaloid nucleus on the other side of the rat. A brain was removed from the rat a day after the injection of an amyloid suspension and a phosphate buffered physiological saline solution (pH 7.4) to prepare a brain slice of 10 μm in thickness with a microtome (type: CM3050S, manufactured by LEICA).\n(3) Compound 6 in diethylether solution was diluted with a 1% bovine serum albumin/phosphate buffer (hereinafter referred to as 1% PB/BSA in the present Example) to obtain a sample solution (0.1 MBq/mL in radioactivity concentration). […]\n(5) After the completion of the image analysis using the Bio-imaging Analyzer, pathological staining with Thioflavin T was carried out to perform imaging by use of a fluorescence microscope (manufactured by NIKON Corporation; type: TE2000-U model; excitation wavelength: 400-440 nm; detection wavelength: 470 nm). […]"}, "[2]": {"conditions": "[125I]-labeled compounds; cited from earlier work"}, "[3]": {"conditions": "reported in WO03/106439; cited from earlier work"}, "[4]": {"tested_on": "Salmonella typhimurium TA1535", "experiment": "Reverse mutation test (Ames test), strain TA1535", "type": "cell-based", "procedure": "(§1) In order to examine gene mutagenicity of Compound 5, reverse mutation test using Salmonella typhimurium TA98 and TA100, TA1535, TA1537 and Escherichia coli WP2uvrA (hereinafter referred to as Ames test) was conducted.\n(§2) The test was conducted without addition of S9mix and with addition of S9mix. Dimethylsulfoxide (DMSO) was used as a negative control.\n(§3) As a sample solution to be added to a test plate, a 50 mg/mL solution of Compound 5 in DMSO and solutions obtained by diluting this solution with DMSO to have various concentrations were prepared. For positive control without addition of S9mix, when TA98 was used as a test strain, a solution of AF-2 (compound concentration: 1 μg/mL) in DMSO was prepared and used as a sample solution; when TA100 or WP2uvrA was used as a test strain, a solution of AF-2 (compound concentration: 0.1 μg/mL) in DMSO was prepared and used as a sample solution; when TA1535 was used as a test strain, a solution of NaN3 (compound concentration: 5 μg/mL) in water for injection was prepared and used as a sample solution; and when TA1537 was used as a test strain, a solution of 9AA (compound concentration: 800 μg/mL) in DMSO was prepared and used as a sample solution. […]"}, "[5]": {"tested_on": "Salmonella typhimurium TA98", "experiment": "Reverse mutation test (Ames test), strain TA98", "type": "cell-based", "procedure": "as §1, §2, §3"}, "[6]": {"tested_on": "Salmonella typhimurium TA100", "experiment": "Reverse mutation test (Ames test), strain TA100", "type": "cell-based", "procedure": "as §1, §2, §3"}, "[7]": {"tested_on": "Salmonella typhimurium TA1537", "experiment": "Reverse mutation test (Ames test), strain TA1537", "type": "cell-based", "procedure": "as §1, §2, §3"}, "[8]": {"tested_on": "Escherichia coli WP2uvrA", "experiment": "Reverse mutation test (Ames test), strain WP2uvrA", "type": "cell-based", "procedure": "as §1, §2, §3"}, "[9]": {"tested_on": "Salmonella typhimurium TA98 and TA100, TA1535, TA1537 and Escherichia coli WP2uvrA", "experiment": "Reverse mutation test (Ames test), overall judgment over all strains", "type": "cell-based", "procedure": "as §1, §2, §3"}, "[10]": {"conditions": "rats, [11C]-labeled; cited from earlier work"}}, "note": "Read-outs that look alike come from different tables or passages of the source."}
{"smiles": "COc1cc(OCCO)ccc1-c1cn2cc([123I])ccc2n1", "values": [{"measurement": "Binding to intracerebral amyloid", "setting": "[1]", "value": "property of binding to intracerebral amyloid"}]}
{"smiles": "CN(C)c1ccc(-c2cn3cc(I)ccc3n2)cc1", "note": "[IMPY, 6-iodo-2-[4′-(N,N-dimethylamino)phenyl]imidazo[1,2-a]pyridine]", "values": [{"measurement": "Clearance from normal tissues", "setting": "[2]", "value": "rapid clearance from normal tissues"}, {"measurement": "Result in reverse mutation test", "setting": "[3]", "value": "positive"}]}
{"smiles": "COc1ccc2nc(-c3ccc(OCCCF)c(I)c3)cn2c1", "note": "[Compound 5, 2-[4′-(3″-fluoropropoxy)-3′-iodophenyl]-6-methoxyimidazo[1,2-a]pyridine]", "values": [{"measurement": "Mutagenicity, TA1535", "setting": "[4]; with addition of S9mix", "value": "Negative"}, {"measurement": "Mutagenicity, TA1535", "setting": "[4]; without addition of S9mix", "value": "Negative"}, {"measurement": "Mutagenicity, TA98", "setting": "[5]; with addition of S9mix", "value": "Negative"}, {"measurement": "Mutagenicity, TA98", "setting": "[5]; without addition of S9mix", "value": "Negative"}, {"measurement": "Mutagenicity, TA100", "setting": "[6]; with addition of S9mix", "value": "Negative"}, {"measurement": "Mutagenicity, TA100", "setting": "[6]; without addition of S9mix", "value": "Negative"}, {"measurement": "Mutagenicity, TA1537", "setting": "[7]; with addition of S9mix", "value": "Negative"}, {"measurement": "Mutagenicity, TA1537", "setting": "[7]; without addition of S9mix", "value": "Negative"}, {"measurement": "Mutagenicity, WP2uvrA", "setting": "[8]; with addition of S9mix", "value": "Negative"}, {"measurement": "Mutagenicity, WP2uvrA", "setting": "[8]; without addition of S9mix", "value": "Negative"}, {"measurement": "Judgment in the Ames test (mutagenicity)", "setting": "[9]; all strains, with and without S9mix", "value": "negative"}, {"measurement": "Number of reverse mutation colonies relative to the negative control", "setting": "[9]; regardless of addition of S9mix and addition amount", "value": "less than two times"}]}
{"smiles": "CNc1ccc(/C=C/c2ccc(O)cc2)cc1", "note": "[SB-13, (E)-4-methylamino-4′-hydroxystilbene]", "values": [{"measurement": "Clearance from normal tissues", "setting": "[10]", "value": "shows a clearance from normal tissues"}]}
